Experiments:
[1] = tested on: PBMCs; experiment: In vitro assay 2: GPR84 ligand associated IL-1beta and TNFalpha release from PBMCs (ELISA); type: cell-based; conditions: for IL-1beta concentration / TNF alpha concentration: PBMCs stimulated with LPS 100 ng/ml 24 hours, treatment 4 h
Experimental: PBMCs were isolated by Ficoll-Paque Plus (Biochrom) density gradient centrifugation from whole blood. Briefly, PBMCs were centrifuged at 250 g for 30 sec and resuspended and cultured in RPMI 1640 medium [Gibco, CAT No. 11875093] with 10% heat-inactivated FBS, L-Glutamine (10 g/L), penicillin (100 IU/mL), and streptomycin ([…]) at 37° C. in a 5% CO2 environment. Cells were stimulated with LPS (100 ng/ml, Sigma-Aldrich) for 24 hours and treated with the GPR84 agonist 6-n-octylaminouracil and antagonist CMPD 139 for 4 h. IL-1beta and TNFalpha concentrations were analyzed by ELISA (Mesoscale Discovery, Germany).

[2] = molecular target: T1, GPR84 (Homo sapiens, UniProt Q9NQS5); experiment: GPR84 cAMP release assay, test for antagonism of agonist-induced activation (cAMP Hunter CHO-K1 GPR84 Gi cells, TR-FRET); type: cell-based
T1 construct: host or cells: CHO-K1 (cAMP Hunter CHO-K1 GPR84 Gi cells)
Experimental: For the resuscitation of frozen cells (cAMP Hunter™ CHO-K1 GPR84 Gi cells; DiscoverX; #95-0158C2) one vial is taken out of the liquid nitrogen storage and rapidly thawed in a water bath at 37° C. for some 1 to 3 minutes. Immediately afterwards the cells are transferred carefully by decanting into a 50 ml Falcon Tube containing 15 ml of pre-warmed full cell culture medium (HAM's F12; 10% FCS; no selection markers). Gentle swirling is used to assist their resuspension. In a next step, the cells are harvested straight away via low g centrifugation for 5 minutes (Hereaus Multifuge 4 KR; 400 rpm; rcf=44 g) to avoid over-compacting the cell pellet. Gentle decanting is used to get rid of the medium. Finally assay readiness is achieved by carefully re-suspending the cell pellet in 5 ml of the final assay medium (HAM's F12; 10% FCS; no selection markers). In a last step, cell viability and the actual cell number is determined (Omni Life Science; Casy Cell Counter/Analyzer) prior to correcting the volume for the final cell number to be seeded, i.e. 2500 cells/μl. Cell seeding is achieved either with the help of multi-channel pipettes or appropriate bulk reagent dispensers.
In a first step, 1 μl of a 4× antagonist solution in the predefined test range (prepared in assay medium; HAM's F12; 10% FCS; 2 mM Glutamin; no selection markers) is added into the wells of a non-sterile 384-well plate (Greiner; white; #784075; Immediately afterwards 2 μl's of assay ready frozen cells are directly seeded into the plate (5000 cells/well)). […] Time resolved FRET (TR-FRET) signals are determined 60 minutes later using an appropriate HTRF reader (BMG Labtech: Pherastar).
Dose response experiments for GPR84 agonists were carried out using the cAMP Hunter™ CHO-K1 GPR84 Gi cell system (DiscoverX) (PathHunter® CHO-K1 hGPR84 β-Arrestin Cell Line cultured with DMF12 HAM, 9% FBS; 300 ug/ml Hygromycin; 800 ug/ml Geneticin; 2 mM Glut; 1% Pen/Strep) in a 384-well plate format. […] Following a 60-minute incubation cAMP levels were determined by TR-FRET as described above. […]

[3] = tested on: Human eutopic endometrium tissue biopsies; experiment: Ex vivo assay 1: GPR84 ligand associated endometrial inflammation assay (cytokines in supernatant, Bio-Plex); type: cell-based; conditions: for IL-1beta in supernatant / TNFalpha in supernatant: endometrium slices, 21 hours
Experimental: Human eutopic endometrium tissue biopsies as surrogate for endometriosis lesion were cut into small slices, washed with HBSS buffer [ThermoFischer, 14175095] and incubated in DMEM/F12 medium [ThermoFischer, 11320-033], supplemented with 5% FCS for 3 hours. […] After 21 hours cytokines in the supernatant were quantified with the Bio-Plex platform according to the supplier's instructions. Data were analyzed using the GraphPad Software (La Jolla, USA). […] These mediators included IL1β and TNFalpha. […] Thus, activation of GPR84 contributes to the inflammation associated with endometriosis and antagonists are able to reduce inflammation

[4] = tested on: mouse CFA model of inflammation; experiment: CFA pain model, dynamic weight-bearing (DWB); type: in vivo; conditions: preventive, 24 h after CFA, vehicle 42.91 +/− 19.32
Experimental: The efficacy of CMPD139 in vivo on inflammatory pain was measured in inflamed paws after administration of complete Freunds' adjuvans (CFA) (24 h) in the dynamic weight-bearing (DWB) model. The effects of repeated preventive treatment with CMPD139 on pain following repeated oral and subcutaneous administration (3×) in the mouse CFA model of inflammation were investigated using a preventive setting. The GPR84 antagonist CMPD139 (90 or 30 mg/kg, p.o.+s.c., 3× doses) was administered 2 h before injection of CFA and 6-8 h later at day 0. At 24 h after CFA application, the third dose of CMPD139 was given 2 h before DWB testing. Statistical analysis was performed with one-way analysis of variance, followed by Bonferroni's multiple comparison test against vehicle control groups using the GraphPad PRISM software, *p<0.05.

[5] = molecular target: T1, GPR84; experiment: GPR84 cAMP release assay, test for agonism (cAMP Hunter CHO-K1 GPR84 Gi cells, TR-FRET); type: cell-based; conditions: 60 min incubation
Experimental: For the resuscitation of frozen cells (cAMP Hunter™ CHO-K1 GPR84 Gi cells; DiscoverX; #95-0158C2) one vial is taken out of the liquid nitrogen storage and rapidly thawed in a water bath at 37° C. for some 1 to 3 minutes. Immediately afterwards the cells are transferred carefully by decanting into a 50 ml Falcon Tube containing 15 ml of pre-warmed full cell culture medium (HAM's F12; 10% FCS; no selection markers). Gentle swirling is used to assist their resuspension. In a next step, the cells are harvested straight away via low g centrifugation for 5 minutes (Hereaus Multifuge 4 KR; 400 rpm; rcf=44 g) to avoid over-compacting the cell pellet. Gentle decanting is used to get rid of the medium. Finally assay readiness is achieved by carefully re-suspending the cell pellet in 5 ml of the final assay medium (HAM's F12; 10% FCS; no selection markers). In a last step, cell viability and the actual cell number is determined (Omni Life Science; Casy Cell Counter/Analyzer) prior to correcting the volume for the final cell number to be seeded, i.e. 2500 cells/μl. […]
2 μl's of assay ready frozen cells are directly seeded into the wells of a non-sterile 384-well plate (Greiner; white; #784075; 5000 cells/well). […] Time resolved FRET (TR-FRET) signals are determined 60 minutes later using an appropriate HTRF reader (BMG Labtech: Pherastar). […]

[6] = 6-n-octylaminouracil (10 μM) + CMPD 139 (10 μM)
[7] = Decanoic Acid (10 μM) + CMPD. 139 (10 μM)
[8] = 6-n-octylaminouracil (10 μM) alone

T1 sequence (Q9NQS5 whole entry): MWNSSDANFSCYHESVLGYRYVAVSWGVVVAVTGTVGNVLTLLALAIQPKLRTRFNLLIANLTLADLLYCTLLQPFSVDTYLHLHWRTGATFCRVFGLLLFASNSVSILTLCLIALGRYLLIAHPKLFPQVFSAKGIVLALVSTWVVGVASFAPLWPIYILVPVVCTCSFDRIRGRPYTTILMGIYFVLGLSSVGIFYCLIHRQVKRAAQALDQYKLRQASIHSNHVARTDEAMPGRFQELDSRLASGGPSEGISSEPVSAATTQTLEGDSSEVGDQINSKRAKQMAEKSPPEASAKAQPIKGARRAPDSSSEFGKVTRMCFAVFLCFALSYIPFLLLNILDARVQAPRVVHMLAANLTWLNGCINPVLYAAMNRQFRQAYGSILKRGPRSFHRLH

Cc1ccc(-c2ccc3c(c2)CCn2c-3cc(OCC3COc4ncccc4O3)nc2=O)cn1 (stereo not shown) [CMPD 139]
IL-1beta concentration [1, 6]: 1933.011 pg/mL
TNF alpha concentration [1, 6]: 479.6307 pg/mL
Effect on GPR84 elevated IL-1beta and TNFalpha levels ([1]; LPS-stimulated PBMCs, with 6-n-octylaminouracil): reduced GPR84 elevated IL-1beta and TNFalpha levels
IC50 ([2]; with 6-n-octylaminouracil 1.34 × 10^−7 M): 0.02 µM
IC50 ([2]; with 40 × 10^−6 M 2-OH decanoic acid): 0.016 µM
IC50 ([2]; with embelin 6.00 10^−6 M): 0.0094 µM
Effect on cytokine and growth factor levels compared to agonist alone ([3]; CMPD 139 at 10^−5 M combined with decanoic acid): reduced all measured cytokine and growth factors
IL-1beta in supernatant [3, 7]: 0.9600 pg/mL
TNFalpha in supernatant [3, 7]: 1.270 pg/mL
Weight distribution (% Ipsi/contra) 2 h post last dose mean +/− SD ([4]; 3x 30 + 30 mg/kg p.o./s.c.): 55.82 +/− 17.38 % Ipsi/contra
Weight distribution (% Ipsi/contra) 2 h post last dose mean +/− SD ([4]; 3x 90 + 90 mg/kg p.o./s.c., *p<0.05 vs vehicle): 60.37 +/− 15.45* % Ipsi/contra

CCCCCCCCC(O)C(=O)O (stereo not shown) [2-OH-decanoic acid, 2-Hydroxydecanoic acid]
EC50 [5]: 24 µM

CCCCCCCCNc1cc(=O)[nH]c(=O)[nH]1 [6-n-octylaminouracil, reference compound]
IL-1beta concentration [1, 8]: 3427.673 pg/mL
TNF alpha concentration [1, 8]: 955.6923 pg/mL

CCCCCCCCCC(=O)O [Decanoic acid, reference compound]
IL-1beta in supernatant ([3]; Decanoic Acid (10 μM) alone): 1.413 pg/mL
TNFalpha in supernatant ([3]; Decanoic Acid (10 μM) alone): 1.953 pg/mL
